Consider 15 compounds from PMC3958129, “Enzyme kinetics and distinct modulation of the protein kinase N family of kinases by lipid activators and small molecule inhibitors” (Bioscience Reports, 2014).

Like-named read-outs stand apart in the source and are kept apart here.

The target in assay [1] is T1, PKN1 (Homo sapiens, UniProt Q16512). Description: PKN1 kinase inhibition, off-chip mobility shift assay. The class given is biochemical. Also noted: Full-length, FLAG-tagged human PKN1, PKN2 and PKN3 were expressed in mammalian HEK-293 cells; host or cells: HEK-293 (transient transfection, pcDNA4/TO).
T1 sequence (Q16512 whole entry): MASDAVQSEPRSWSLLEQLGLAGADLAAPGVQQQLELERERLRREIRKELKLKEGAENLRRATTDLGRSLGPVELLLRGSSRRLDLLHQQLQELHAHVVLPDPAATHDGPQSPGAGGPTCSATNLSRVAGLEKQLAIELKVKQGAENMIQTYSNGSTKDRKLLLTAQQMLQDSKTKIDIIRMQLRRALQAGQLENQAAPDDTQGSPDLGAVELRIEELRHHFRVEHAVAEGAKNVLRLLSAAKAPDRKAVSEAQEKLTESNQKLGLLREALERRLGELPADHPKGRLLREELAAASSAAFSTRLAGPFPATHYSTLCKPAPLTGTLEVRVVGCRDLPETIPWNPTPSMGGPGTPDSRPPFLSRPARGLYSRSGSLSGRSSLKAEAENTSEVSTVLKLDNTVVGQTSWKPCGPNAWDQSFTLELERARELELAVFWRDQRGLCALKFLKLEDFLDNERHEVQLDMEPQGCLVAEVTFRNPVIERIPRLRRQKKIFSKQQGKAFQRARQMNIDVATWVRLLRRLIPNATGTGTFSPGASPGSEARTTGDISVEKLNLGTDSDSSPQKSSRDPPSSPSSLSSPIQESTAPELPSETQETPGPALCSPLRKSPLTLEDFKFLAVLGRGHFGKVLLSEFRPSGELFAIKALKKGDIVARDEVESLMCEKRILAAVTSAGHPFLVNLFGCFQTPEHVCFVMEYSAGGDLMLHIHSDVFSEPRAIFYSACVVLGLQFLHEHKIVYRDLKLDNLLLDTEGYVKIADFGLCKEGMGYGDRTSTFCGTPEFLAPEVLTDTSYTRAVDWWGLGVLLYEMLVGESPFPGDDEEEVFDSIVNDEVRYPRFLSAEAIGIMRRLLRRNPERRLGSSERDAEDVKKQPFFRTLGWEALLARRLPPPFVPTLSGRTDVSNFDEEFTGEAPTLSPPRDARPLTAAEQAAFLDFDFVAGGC
Protocol: (§4) The activity of all PKN proteins was monitored through the use of a highly sensitive off-chip mobility shift assay utilizing a LabChip EZ Reader II instrument (Caliper Life Sciences/PerkinElmer); this assay format has been described elsewhere [31]. […] Peptide concentration was adjusted according to purity and peptide content. For inhibition studies, the inhibitor was pre-incubated with enzyme for 15 min at room temperature. All reactions were initiated with ATP and conducted at room temperature (~22°C).
(§5) All data were globally fit using non-linear regression and GraphPad Prism software. Non-linear data were converted to double-reciprocal Lineweaver–Burk plots for visual and presentation purposes only. Kinetic data were analysed in duplicate, and each plot is representative of at least two independent experiments.
(§6) For enzyme inhibition studies, data were fit to eqns (2)–(4) for competitive, non-competitive and uncompetitive inhibition, respectively: (2) v=Vmax[S]/[S]+KM1+[I]/Ki (3) v=Vmax[S]/([S]+KM)1+[I]/Ki (4) v=Vmax[S]/[S]1+[I]/αKi+KM
(§7) For eqns (1)–(4), v is measured velocity, Vmax is maximum velocity, [ATP], [Pep] and [S] are concentrations of ATP, peptide and varied substrate, respectively; Kia is the equilibrium dissociation constant of ATP, KM,ATP, KM,Pep and KM are the Michaelis–Menten constants for ATP, peptide and the varied substrate, respectively. [I] is the inhibitor concentration, α describes the preference for inhibitor binding to either free or substrate bound enzyme and Ki is the inhibitor equilibrium dissociation constant.
The target in assay [2] is T2, PKN3 (Homo sapiens, UniProt Q6P5Z2). Description: PKN3 kinase inhibition, off-chip mobility shift assay. The class given is biochemical. Also noted: Full-length, FLAG-tagged human PKN1, PKN2 and PKN3 were expressed in mammalian HEK-293 cells.
T2 sequence (Q6P5Z2 whole entry): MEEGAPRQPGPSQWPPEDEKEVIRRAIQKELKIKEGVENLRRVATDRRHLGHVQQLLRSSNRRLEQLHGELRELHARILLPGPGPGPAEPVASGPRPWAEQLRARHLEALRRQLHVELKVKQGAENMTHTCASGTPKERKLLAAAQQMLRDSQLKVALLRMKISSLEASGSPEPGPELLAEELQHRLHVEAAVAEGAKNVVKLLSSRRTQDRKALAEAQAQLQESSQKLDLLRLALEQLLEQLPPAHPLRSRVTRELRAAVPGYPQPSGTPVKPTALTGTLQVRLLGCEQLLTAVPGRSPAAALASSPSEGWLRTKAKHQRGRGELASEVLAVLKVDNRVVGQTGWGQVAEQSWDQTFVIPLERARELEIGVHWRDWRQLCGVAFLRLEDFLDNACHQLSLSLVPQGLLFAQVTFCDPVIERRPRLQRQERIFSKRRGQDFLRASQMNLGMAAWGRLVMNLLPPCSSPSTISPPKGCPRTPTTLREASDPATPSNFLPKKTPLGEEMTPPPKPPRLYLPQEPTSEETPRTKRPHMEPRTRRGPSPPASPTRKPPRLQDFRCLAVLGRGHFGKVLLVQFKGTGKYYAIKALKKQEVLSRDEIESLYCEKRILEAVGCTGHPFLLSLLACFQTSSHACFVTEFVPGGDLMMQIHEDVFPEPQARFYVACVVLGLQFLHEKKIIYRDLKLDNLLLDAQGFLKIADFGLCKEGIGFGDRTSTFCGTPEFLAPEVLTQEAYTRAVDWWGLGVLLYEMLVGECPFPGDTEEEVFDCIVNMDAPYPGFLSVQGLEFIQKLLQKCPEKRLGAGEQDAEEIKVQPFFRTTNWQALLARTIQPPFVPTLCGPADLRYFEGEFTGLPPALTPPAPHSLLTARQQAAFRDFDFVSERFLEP
Protocol: as §4, §5, §6, §7
Assay [3] concerns the target T3, PKN2 (Homo sapiens, UniProt Q16513). Description: PKN2 kinase inhibition, off-chip mobility shift assay. The format is biochemical. Also noted: Full-length, FLAG-tagged human PKN1, PKN2 and PKN3 were expressed in mammalian HEK-293 cells; host or cells: HEK-293 (transient transfection, pcDNA4/TO).
Protocol: as §4, §5, §6, §7
For assay [4], the target named is T1, PKN1. Description: Lipid activation of PKN1 kinase activity, off-chip mobility shift assay. To be noted: saturating ATP (500 μM), 3 μM peptide, 1 nM PKN1; for PKN1 Maximal fold activation: increase in initial rate; for EC50: lipid activator. Also noted: Full-length, FLAG-tagged human PKN1, PKN2 and PKN3 were expressed in mammalian HEK-293 cells; host or cells: HEK-293 (transient transfection, pcDNA4/TO). The format is biochemical. As to the method:
(§1) Lipids were supplied as a solid powders, ethanol, or chloroform solutions. All solids were dissolved directly into assay buffer and briefly water bath sonicated at room temperature for 10 min. Lipids supplied as solutions in organic solvent were dried under a gentle stream of nitrogen, resuspended in assay buffer, and similarly sonicated. All lipids were prepared fresh daily.
(§2) The activity of all PKN proteins was monitored through the use of a highly sensitive off-chip mobility shift assay utilizing a LabChip EZ Reader II instrument (Caliper Life Sciences/PerkinElmer); this assay format has been described elsewhere. Kinase activity was monitored through the phosphorylation of a 5-FAM-labelled PKN substrate peptide found through Pfizer in-house optimization efforts and derived from the amino acid sequence of GSK3α (accession no. AAH51865.1) with the following sequence: 5-FAM-C6-[…]-NH2. The likely site of phosphorylation is underlined, as determined through comparison with the published phosphorylation consensus sequence for PKN1 and PKN3 substrates. Reaction buffer contained 25 mM Tris, pH 8.0, 5 mM MgCl2, 0.002% CHAPS and 2 mM DTT, with indicated protein, ATP and peptide concentrations. Peptide concentration was adjusted according to purity and peptide content. For inhibition studies, the inhibitor was pre-incubated with enzyme for 15 min at room temperature. All reactions were initiated with ATP and conducted at room temperature (~22°C). Reactions were terminated by the addition of EDTA, pH 8.0, at a final concentration of 25 mM. All reaction rates were determined to be linear with respect to time and enzyme concentration where no more than 20% of peptide substrate had been converted to product. Aliquots of each reaction were transferred in duplicate to a 384-well plate and analysed on a LabChip EZ Reader II with separation buffer containing 100 mM Hepes, pH 7.5, 0.015% Brij-35, 1 mM EDTA, 0.1% CR3 coating reagent, 1×CR8 coating reagent and 5% DMSO, with the following settings: downstream voltage: −500 V, upstream voltage: −2300 V, base pressure: −0.5 psi; screen pressure: −1.7 psi. […]
(§3) Figure 2 PKN responses to lipid activators in biochemical assays Lipids were prepared as described under the Experimental section, and kinase activity of PKN isoforms was measured using off-chip mobility shift assay described in the Methods section. Each lipid was titrated in the presence of 1 nM, 5 nM and 3 nM PKN1–3, respectively, 3 μM peptide and 500 μM ATP. vi is the initial rate at each concentration of lipid activator and vo is the initial rate in the absence of lipid.

Assay [5] has as its target T3, PKN2. Description: Lipid activation of PKN2 kinase activity, off-chip mobility shift assay. The format is biochemical. Also noted: Full-length, FLAG-tagged human PKN1, PKN2 and PKN3 were expressed in mammalian HEK-293 cells; host or cells: HEK-293 (transient transfection, pcDNA4/TO). The conditions noted are these: for PKN2 Maximal fold activation: increase in initial rate; for effect on PKN2 kinase activity: in words, saturating ATP. On the procedure: as §1, §2, §3

Assay [6] has as its target T2, PKN3. Description: Lipid activation of PKN3 kinase activity, off-chip mobility shift assay. Also noted: Full-length, FLAG-tagged human PKN1, PKN2 and PKN3 were expressed in mammalian HEK-293 cells. The class given is biochemical. The conditions noted are these: increase in initial rate; saturating ATP (500 μM), 3 μM peptide, 3 nM PKN3. As to the method: as §1
The activity of all PKN proteins was monitored through the use of a highly sensitive off-chip mobility shift assay utilizing a LabChip EZ Reader II instrument (Caliper Life Sciences/PerkinElmer); this assay format has been described elsewhere. Kinase activity was monitored through the phosphorylation of a 5-FAM-labelled PKN substrate peptide found through Pfizer in-house optimization efforts and derived from the amino acid sequence of GSK3α (accession no. AAH51865.1) with the following sequence: 5-FAM-C6-[…]-NH2. The likely site of phosphorylation is underlined, as determined through comparison with the published phosphorylation consensus sequence for PKN1 and PKN3 substrates. Reaction buffer contained 25 mM Tris, pH 8.0, 5 mM MgCl2, 0.002% CHAPS and 2 mM DTT, with indicated protein, ATP and peptide concentrations. Peptide concentration was adjusted according to purity and peptide content. For inhibition studies, the inhibitor was pre-incubated with enzyme for 15 min at room temperature. All reactions were initiated with ATP and conducted at room temperature (~22°C). Reactions were terminated by the addition of EDTA, pH 8.0, at a final concentration of 25 mM. All reaction rates were determined to be linear with respect to time and enzyme concentration where no more than 20% of peptide substrate had been converted to product. Aliquots of each reaction were transferred in duplicate to a 384-well plate and analysed on a LabChip EZ Reader II with separation buffer containing 100 mM Hepes, pH 7.5, 0.015% Brij-35, 1 mM EDTA, 0.1% CR3 coating reagent, 1×CR8 coating reagent and 5% DMSO, with the following settings: downstream voltage: −500 V, upstream voltage: −2300 V, base pressure: −0.5 psi; screen pressure: −1.7 psi.
Ki values for representative inhibitors were determined by fitting initial reaction velocities to eqn (2) for competitive inhibition using the method of non-linear least-squares using GraphPad Prism. Turnover number (kcat) was calculated by normalizing Vmax values for enzyme concentration.
as §3

Another assay has as its system PKN1, PKN2 and PKN3. Description: PKN isoform selectivity from Ki values (Ki ratio). The class given is biochemical, human. The conditions noted are these: for Isoform selectivity: isoform(s) preferred, defined as ~10-fold or greater Ki ratio.
Setting [7] is: absence of lipids, fit to competitive inhibition, ±S.D., n=2, read-out: PKN1, Ki.
The mark [8] stands for this setting: absence of lipids, fit to competitive inhibition, ±S.D., n=2, read-out: PKN3, Ki.
Where [9] appears, read: absence of lipids, fit to competitive inhibition, ±S.D., n=2, read-out: PKN2, Ki.
[10] abbreviates: saturating ATP (500 μM), 3 μM peptide, 5 nM PKN2.

T3 sequence (Q16513 whole entry): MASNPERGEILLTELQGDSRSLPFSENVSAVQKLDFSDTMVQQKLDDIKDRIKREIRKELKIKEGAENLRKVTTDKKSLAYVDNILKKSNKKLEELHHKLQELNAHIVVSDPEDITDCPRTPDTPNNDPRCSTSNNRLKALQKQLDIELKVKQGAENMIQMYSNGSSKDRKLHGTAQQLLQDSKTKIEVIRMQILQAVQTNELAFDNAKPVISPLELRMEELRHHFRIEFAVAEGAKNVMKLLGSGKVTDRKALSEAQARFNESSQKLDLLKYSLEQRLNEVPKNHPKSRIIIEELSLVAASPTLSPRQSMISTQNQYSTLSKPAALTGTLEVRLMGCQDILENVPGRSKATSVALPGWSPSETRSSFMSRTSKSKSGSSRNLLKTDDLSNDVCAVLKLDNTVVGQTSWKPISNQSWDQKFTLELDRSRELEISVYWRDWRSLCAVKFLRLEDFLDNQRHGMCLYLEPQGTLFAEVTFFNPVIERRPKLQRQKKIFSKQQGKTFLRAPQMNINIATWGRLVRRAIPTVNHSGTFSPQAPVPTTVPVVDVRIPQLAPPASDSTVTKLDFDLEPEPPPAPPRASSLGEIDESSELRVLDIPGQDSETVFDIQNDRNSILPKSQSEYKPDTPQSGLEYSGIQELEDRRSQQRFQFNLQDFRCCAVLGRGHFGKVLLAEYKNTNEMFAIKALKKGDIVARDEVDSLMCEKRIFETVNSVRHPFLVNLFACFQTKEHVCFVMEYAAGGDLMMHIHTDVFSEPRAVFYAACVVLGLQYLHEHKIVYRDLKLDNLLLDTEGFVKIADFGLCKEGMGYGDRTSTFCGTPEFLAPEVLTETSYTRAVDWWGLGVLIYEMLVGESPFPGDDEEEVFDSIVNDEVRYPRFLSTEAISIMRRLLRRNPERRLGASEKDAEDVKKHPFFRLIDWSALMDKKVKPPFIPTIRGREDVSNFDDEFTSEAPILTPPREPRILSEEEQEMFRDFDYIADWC
Description for PKN1, PKN2 and PKN3: The activity of all PKN proteins was monitored through the use of a highly sensitive off-chip mobility shift assay utilizing a LabChip EZ Reader II instrument (Caliper Life Sciences/PerkinElmer); this assay format has been described elsewhere [31]. […] The likely site of phosphorylation is underlined, as determined through comparison with the published phosphorylation consensus sequence for PKN1 and PKN3 substrates [27]. […] Peptide concentration was adjusted according to purity and peptide content. For inhibition studies, the inhibitor was pre-incubated with enzyme for 15 min at room temperature. All reactions were initiated with ATP and conducted at room temperature (~22°C).

Take `CNCCNS(=O)(=O)c1cccc2cnccc12` [Compound 10, H-8]: the Ki at PKN1 [1] (setting [7]) turned out to be 1800 ± 300 nM; at PKN3 [2] (setting [8]) it was 10 ± 2 nM; at PKN2 [3] (setting [9]), 1800 ± 300 nM.
For the compound `O=P(O)(O)O[C@@H]1[C@H](O)[C@H](O)[C@@H](OP(=O)(O)O)[C@H](OP(=O)(O)O)[C@H]1O` [IP3, D-myo-inositol-1,3,5-triphosphate], the “PKN1 Maximal fold activation” value at PKN1 [4] was below 2 fold. For the same compound, the “PKN2 Maximal fold activation” value at PKN2 [5] (setting [10]) is below 2 fold. In addition, on PKN3 [6], the “PKN3 Maximal fold activation” value is on record as below 2 fold.
Take H-PRLQRQERIFSKRRG-OH [PKN3-PRL]: the Ki at PKN3 [2] (competitive with respect to peptide substrate, 250 μM ATP, 0.9–30 μM peptide, 4 nM enzyme, 5 μM arachidonic acid, read-out: PKN3 Ki with respect to peptide substrate) worked out at 5400 nM. Further, the “PKN3 αKi with respect to ATP” value at PKN3 [2] (uncompetitive with respect to ATP, 6 μM peptide, 7.8–250 μM ATP, 4 nM enzyme, 5 μM arachidonic acid) is 1.3 µM.
Regarding `O=S(=O)(c1cccc2cnccc12)N1CCCNCC1` [Compound 12, HA-1077], the Ki on PKN1 [1] (setting [7]) came out at 800 ± 100 nM.
As for “phosphatidylinositol-3,4,5-triphosphate [PIP3]”, at PKN1 [4], the “PKN1 Maximal fold activation” value is given as 11 fold and the EC50 (usually the concentration needed to bring the measured effect to its halfway point) was found to be 2000 ± 1000 nM. Besides, on PKN2 [5], the “effect on PKN2 kinase activity” value is on record as “not affected”. Besides, on PKN2 [5] (setting [10]), the “PKN2 Maximal fold activation” value was below 2 fold. Further, the “PKN3 Maximal fold activation” value on PKN3 [6] is listed as below 2 fold.
As for `CO[C@@H]1[C@H](N(C)C(=O)c2ccccc2)C[C@H]2O[C@]1(C)n1c3ccccc3c3c4c(c5c6ccccc6n2c5c31)C(=O)NC4` [Compound 1, PKC412], on PKN3 [2] (setting [8]), the Ki is below 0.2 nM.
In the case of `Nc1ncnc2c1ncn2[C@@H]1O[C@H](COP(=O)(O)OP(=O)(O)O)[C@@H](O)[C@H]1O` [ADP], the Ki turned out to be 53000 ± 4000 nM at PKN1 [1] (product inhibition, competitive with respect to ATP, 3 μM peptide, 31–1000 μM ATP, 1 nM enzyme, 100 μM arachidonic acid, read-out: PKN1 Ki); 170000 ± 14000 nM at PKN1 [1] (product inhibition, non-competitive with respect to peptide, 50 μM ATP, 0.3–10 μM peptide, 1 nM enzyme, 100 μM arachidonic acid, read-out: PKN1 Kiapp); 69000 ± 5000 nM at PKN3 [2] (product inhibition, competitive with respect to ATP, 5 μM peptide, 7.8–250 μM ATP, 4 nM enzyme, 5 μM arachidonic acid, read-out: PKN3 Ki); 320000 ± 12000 nM at PKN3 [2] (product inhibition, non-competitive with respect to peptide, 50 μM ATP, 0.9–30 μM peptide, 4 nM enzyme, 5 μM arachidonic acid, read-out: PKN3 Kiapp); 26000 ± 4000 nM at PKN2 [3] (product inhibition, competitive with respect to ATP, 2 μM peptide, 6–200 μM ATP, 2 nM enzyme, 100 μM arachidonic acid, read-out: PKN2 Ki); 65000 ± 5000 nM at PKN2 [3] (product inhibition, non-competitive with respect to peptide, 20 μM ATP, 0.3–10 μM peptide, 2 nM enzyme, 100 μM arachidonic acid, read-out: PKN2 Kiapp).
For `CN(C)CCCn1cc(C2=C(c3c[nH]c4ccccc34)C(=O)NC2=O)c2ccccc21` [Compound 3, GF 109203X], the “selectivity for PKN1/2 over PKN3” value in the assay with PKN1, PKN2 and PKN3 (from Ki values) is given as “at least 25 fold”. The Isoform selectivity result in the assay with PKN1, PKN2 and PKN3 is listed as “PKN1/2”. Besides, the Ki was 79 ± 8 nM on PKN1 [1] (setting [7]), 2300 ± 500 nM on PKN3 [2] (setting [8]) and 90 ± 20 nM at PKN2 [3] (setting [9]).
For the compound Phosphatidylserine, the “PKN1 Maximal fold activation” value was 15 fold on PKN1 [4] and 10–16 fold at PKN1 [4] (listed as phosphatidylserine). Also, the EC50 on PKN1 [4] is 3000 ± 1000 nM. In addition, the “effect on PKN2 kinase activity” value at PKN2 [5] is listed as “not affected”. The “PKN2 Maximal fold activation” value on PKN2 [5] (setting [10]) is recorded as below 2 fold. The “PKN3 Maximal fold activation” value at PKN3 [6] is reported as below 2 fold.
Regarding `CN(C(Cc1ccc(OS(=O)(=O)c2cccc3cnccc23)cc1)C(=O)N1CCN(c2ccccc2)CC1)S(=O)(=O)c1cccc2cnccc12` (stereo not shown) [Compound 11, KN62], the results for the Ki at PKN1 [1] (setting [7]) and on PKN2 [3] (setting [9]) were 2900 ± 700 nM and above 5000 nM, respectively.
For `O=C1Nc2ccc3ncsc3c2/C1=C/c1c[nH]cn1` [Compound 5, PKR inhibitor], in the assay on PKN1, PKN2 and PKN3, the Isoform selectivity result is “PKN2”. In addition, the Ki on PKN1 [1] (setting [7]) was found to be 410 ± 50 nM; on PKN3 [2] (setting [8]), 240 ± 30 nM; at PKN2 [3] (setting [9]), 41 ± 7 nM.
On to `Oc1ccc(-c2nc(-c3ccncc3)c(-c3ccc(F)cc3)[nH]2)cc1` [Compound 9, SB-202190], for which the Ki at PKN1 [1] (setting [7]) is above 5000 nM; at PKN3 [2] (setting [8]), 4 ± 0.3 nM; at PKN2 [3] (setting [9]), 2300 ± 400 nM.
For “phosphatidylinositol-4,5-bisphosphate [PIP2]”, on PKN1 [4], the “PKN1 Maximal fold activation” value is 14 fold and the EC50 was found to be 5000 ± 1000 nM. Moreover, the “effect on PKN2 kinase activity” value at PKN2 [5] is on record as “increased”. Moreover, the “PKN2 Maximal fold activation” value on PKN2 [5] (setting [10]) came out at 7 fold. At PKN2 [5] (lipid activator, saturating ATP (500 μM), 3 μM peptide, 5 nM PKN2), the EC50 was 2000 ± 1000 nM. For the same compound, the “PKN3 Maximal fold activation” value at PKN3 [6] was below 2 fold.
On to `CCCCCCCC(=O)OC[C@H](CO)OC(=O)CCCCCCC` [DAG, 1,2-dioctanoyl-sn-glycerol], for which the “PKN1 Maximal fold activation” value on PKN1 [4] is recorded as below 2 fold. The “PKN2 Maximal fold activation” value on PKN2 [5] (setting [10]) is listed as below 2 fold. On PKN3 [6], the “PKN3 Maximal fold activation” value is recorded as below 2 fold.
Regarding `Cn1cc(C2=C(c3cn(CCCSC(=N)N)c4ccccc34)C(=O)NC2=O)c2ccccc21` [Compound 2, Ro 31-8220], the results for the Ki at PKN3 [2] (setting [8]) and on PKN2 [3] (setting [9]) were 170 ± 10 nM and 17 ± 2 nM, respectively.
